Results: article PMC11859184, “Synthesis and Evaluation of ^68Ga- and ^177Lu-Labeled [diF-Pro^14]Bombesin(6−14) Analogs for Detection and Radioligand Therapy of Gastrin-Releasing Peptide Receptor-Expressing Cancer” (Pharmaceuticals, 2025)
Like-named read-outs stand apart in the source and are kept apart here.

Experiment: Ex vivo biodistribution of 177Lu-labeled ligands in PC-3 tumor-bearing mice
Conditions: mouse; for tissue to tissue ratio at 1 h / tissue to tissue ratio at 4 h / tissue to tissue ratio at 24 h / tissue to tissue ratio at 72 h / tissue to tissue ratio at 120 h: male, NOD.Cg-Rag1^tm1Mom Il2rg^tm1Wjl/SzJ (NRG), iv, total radioactivity; for tissue to tissue ratio at 1 h / tissue uptake at 1 h: 1 h pi; for tissue to tissue ratio at 4 h / tissue uptake at 4 h: 4 h pi; for tissue to tissue ratio at 24 h / tissue uptake at 24 h: 24 h pi; for tissue to tissue ratio at 120 h / tissue uptake at 120 h: 120 h pi; for tissue uptake at 1 h / tissue uptake at 4 h / tissue uptake at 24 h / tissue uptake at 72 h / tissue uptake at 120 h: intravenous
Protocol: SPECT/CT imaging was conducted using an MI Labs (Houten, The Netherlands) U-SPECT-II/CT scanner with a custom-made ultra-high sensitivity big mouse collimator (2 mm pinhole size) following published procedure. The experiments were obtained in accordance with the same protocol established in the PET/CT imaging and ex vivo biodistributions section. The mice were used for SPECT/CT imaging and ex vivo biodistributions studies once the tumors reached a diameter of 5–8 mm. PC-3 tumor-bearing mice were sedated (2.5% isoflurane in O2) and injected with 31.4–36.9 MBq of the ^177Lu-labeled ligand through a lateral caudal tail vein. The mouse was imaged at 1, 4, 24, 72, and 120 h pi. At each time point, a 5 min CT scan was performed with 615 μA and 60 kV parameters for localization and attenuation, followed by two 30 min static SPECT scans in list mode with an energy window centered around 208 keV. The U-SPECT II software was used to reconstruct data, and the images were decay corrected to the time of injection with PMOD v 3.402 (PMOD Technologies GmbH, Fallanden, Switzerland).
For ex vivo biodistribution studies, the mice were injected with ~3–5 MBq of the ^177Lu-labeled ligand (n = 5). At 1, 4, 24, 72, and 120 h post-injection, the mice were anesthetized with 2% isoflurane, euthanized by CO2 inhalation, and the tissues/organs of interest were […] for radioactivity counting. The blocking study was performed at 1 h pi via co-injection of the ^177Lu-labeled ligand with 100 μg of [D-Phe^6,Leu-NHEt^13,des-Met^14]Bombesin(6–14).

[1] = tumor/blood, n = 5, read-out: Tumor/blood uptake ratio
[2] = tumor/kidney, n = 5, read-out: Tumor/kidney uptake ratio
[3] = tumor/muscle, n = 5, read-out: Tumor/muscle uptake ratio
[4] = tumor/pancreas, n = 5, read-out: Tumor/pancreas uptake ratio
[5] = PC-3 tumor, n = 5, read-out: PC-3 tumor uptake
[6] = adrenal glands, n = 5, read-out: Adrenal glands uptake
[7] = blood, n = 5, read-out: Blood uptake
[8] = bone, n = 5, read-out: Bone uptake
[9] = brain, n = 5, read-out: Brain uptake
[10] = fat, n = 5, read-out: Fat uptake
[11] = heart, n = 5, read-out: Heart uptake

tissue to tissue ratio at 1 h (tumor/blood, blocked (100 µg GRPR antagonist co-injected), read-out: Tumor/blood uptake ratio): 3.06 ± 0.99
tissue to tissue ratio at 1 h [1]: 16.9 ± 5.57
tissue to tissue ratio at 4 h [1]: 136 ± 14.7
tissue to tissue ratio at 24 h [1]: 365 ± 251
tissue to tissue ratio at 72 h (tumor/blood, 72 h pi, n = 5, read-out: Tumor/blood uptake ratio): 1300 ± 703
tissue to tissue ratio at 120 h [1]: 529 ± 380
tissue to tissue ratio at 1 h (tumor/kidney, blocked (100 µg GRPR antagonist co-injected), read-out: Tumor/kidney uptake ratio): 0.52 ± 0.08
tissue to tissue ratio at 1 h [2]: 2.17 ± 0.49
tissue to tissue ratio at 4 h [2]: 1.61 ± 0.3
tissue to tissue ratio at 24 h [2]: 1.34 ± 0.38
tissue to tissue ratio at 72 h (tumor/kidney, 72 h pi, n = 5, read-out: Tumor/kidney uptake ratio): 2.17 ± 0.33
tissue to tissue ratio at 120 h [2]: 2.77 ± 0.65
tissue to tissue ratio at 1 h (tumor/muscle, blocked (100 µg GRPR antagonist co-injected), read-out: Tumor/muscle uptake ratio): 14.6 ± 2.5
tissue to tissue ratio at 1 h [3]: 90 ± 17.3
tissue to tissue ratio at 4 h [3]: 275 ± 35
tissue to tissue ratio at 24 h [3]: 149 ± 50.5
tissue to tissue ratio at 72 h (tumor/muscle, 72 h pi, n = 5, read-out: Tumor/muscle uptake ratio): 356 ± 110
tissue to tissue ratio at 120 h [3]: 214 ± 77.9
tissue to tissue ratio at 1 h (tumor/pancreas, blocked (100 µg GRPR antagonist co-injected), read-out: Tumor/pancreas uptake ratio): 6.53 ± 0.76
tissue to tissue ratio at 1 h [4]: 14.8 ± 2.39
tissue to tissue ratio at 4 h [4]: 48.1 ± 11.3
tissue to tissue ratio at 24 h [4]: 26.5 ± 4.82
tissue to tissue ratio at 72 h (tumor/pancreas, 72 h pi, n = 5, read-out: Tumor/pancreas uptake ratio): 46.8 ± 13.9
tissue to tissue ratio at 120 h [4]: 51.5 ± 13.9
tissue uptake at 1 h (PC-3 tumor, 100 ug, blocked (100 µg GRPR antagonist co-injected), read-out: PC-3 tumor uptake): 2.02 ± 0.44 %ID/g
tissue uptake at 1 h [5]: 5.67 ± 1.02 %ID/g
tissue uptake at 4 h [5]: 2.96 ± 0.37 %ID/g
tissue uptake at 24 h [5]: 1.12 ± 0.2 %ID/g
tissue uptake at 72 h (PC-3 tumor, 72 h pi, n = 5, read-out: PC-3 tumor uptake): 0.55 ± 0.15 %ID/g
tissue uptake at 120 h [5]: 0.32 ± 0.06 %ID/g
tissue uptake at 72 h (PC-3 tumor, after 72 h pi, read-out: tumor uptake): < 1 %ID/g
tissue uptake at 1 h (adrenal glands, 100 ug, blocked (100 µg GRPR antagonist co-injected), read-out: Adrenal glands uptake): 0.23 ± 0.06 %ID/g
tissue uptake at 1 h [6]: 0.18 ± 0.05 %ID/g
tissue uptake at 4 h [6]: 0.17 ± 0.09 %ID/g
tissue uptake at 24 h [6]: 0.12 ± 0.05 %ID/g
tissue uptake at 72 h (adrenal glands, 72 h pi, n = 5, read-out: Adrenal glands uptake): 0.02 ± 0.01 %ID/g
tissue uptake at 120 h [6]: 0.03 ± 0.02 %ID/g
tissue uptake at 1 h (blood, 100 ug, blocked (100 µg GRPR antagonist co-injected), read-out: Blood uptake): 0.74 ± 0.18 %ID/g
tissue uptake at 1 h [7]: 0.37 ± 0.14 %ID/g
tissue uptake at 4 h [7]: 0.02 %ID/g
tissue uptake at 24 h [7]: 0.01 ± 0.01 %ID/g
tissue uptake at 1 h (bone, 100 ug, blocked (100 µg GRPR antagonist co-injected), read-out: Bone uptake): 0.07 ± 0.04 %ID/g
tissue uptake at 1 h [8]: 0.06 ± 0.01 %ID/g
tissue uptake at 4 h [8]: 0.01 %ID/g
tissue uptake at 24 h [8]: 0.02 ± 0.01 %ID/g
tissue uptake at 72 h (bone, 72 h pi, n = 5, read-out: Bone uptake): 0.01 ± 0.01 %ID/g
tissue uptake at 120 h [8]: 0.01 ± 0.01 %ID/g
tissue uptake at 1 h (brain, 100 ug, blocked (100 µg GRPR antagonist co-injected), read-out: Brain uptake): 0.02 ± 0.01 %ID/g
tissue uptake at 1 h [9]: 0.02 %ID/g
tissue uptake at 4 h [9]: 0.01 %ID/g
tissue uptake at 1 h (fat, 100 ug, blocked (100 µg GRPR antagonist co-injected), read-out: Fat uptake): 0.09 ± 0.04 %ID/g
tissue uptake at 1 h [10]: 0.04 ± 0.02 %ID/g
tissue uptake at 4 h [10]: 0.01 ± 0.01 %ID/g
tissue uptake at 24 h [10]: 0.01 %ID/g
tissue uptake at 1 h (heart, 100 ug, blocked (100 µg GRPR antagonist co-injected), read-out: Heart uptake): 0.23 ± 0.05 %ID/g
tissue uptake at 1 h [11]: 0.13 ± 0.05 %ID/g
tissue uptake at 4 h [11]: 0.03 ± 0.01 %ID/g
tissue uptake at 24 h [11]: 0.02 ± 0.01 %ID/g
tissue uptake at 72 h (heart, 72 h pi, n = 5, read-out: Heart uptake): 0.01 %ID/g
Structure (SMILES): CC(C)C[C@@H](CN1CC(F)(F)C[C@H]1C(N)=O)NC(=O)[C@H](Cc1c[nH]cn1)NC(=O)CN(C)C(=O)[C@@H](NC(=O)[C@H](C)NC(=O)[C@H](Cc1c[nH]c2ccccc12)NC(=O)[C@H](CCC(N)=O)NC(=O)[C@@H](Cc1ccccc1)NC(=O)CN1CCC(NC(=O)CN2CCN(CC(=O)O)CCN(CC(=O)O)CCN(CC(=O)O)CC2)CC1)C(C)C [[^177Lu]Lu-LW02080, metal not drawn]
